Assay results: patent publication US8207204B2, “Triazole derivatives as SCD inhibitors” (GlaxoSmithKline LLC, priority 2007, dated 2012)
Structures can show the parent of a compound that is named as a salt.

| Compound | melting point [°C] |
| --- | --- |
| COc1ccc2nc(NC(=O)c3nnn(Cc4ccc(Cl)c(Cl)c4)c3C)sc2c1 | 225 |
| Cc1c(C(=O)Nc2nc3[nH]c(=O)[nH]c(=O)c3s2)nnn1Cc1ccc(Cl)c(Cl)c1 | 279.9 |
| Cc1nc(NC(=O)c2nnn(Cc3ccc(Cl)c(Cl)c3)c2C)sc1C(=O)NCCN(C)C.Cl | 121 |
| Cc1nc(NC(=O)c2nnn(Cc3ccc(Cl)c(Cl)c3)c2C)sc1C(=O)N(C)C (as salt: hydrochloride) [Example 28, 1-[(3,4-Dichlorophenyl)methyl]-N-{5-[(dimethylamino)carbonyl]-4-methyl-1,3-thiazo1-2-yl}-5-methyl-1H-1,2,3-triazole-4-carboxamide] | 144 |
| CCOC(=O)c1nnc(NC(=O)c2nnn(Cc3ccc(Cl)c(Cl)c3)c2C)s1 [Example 3, Ethyl 5-[({1-[(3,4-dichlorophenyl)methyl]-5-methyl-1H-1,2,3-triazol-4-yl}carbonyl)amino]-1,3,4-thiadiazole-2-carboxylate] | 203.8 |
| COC(=O)c1cnc(NC(=O)c2nnn(Cc3ccc(Cl)c(Cl)c3)c2C)s1 [Example 4, Methyl 2-[({1-[(3,4-dichlorophenyl)methyl]-5-methyl-1H-1,2,3-triazol-4-yl}carbonyl)amino]-1,3-thiazole-5-carboxylate] | 212 |
| Cc1c(C(=O)Nc2ncc(C=O)s2)nnn1Cc1ccc(Cl)c(Cl)c1 [Example 5, 1-[(3,4-Dichlorophenyl)methyl]-N-(5-formyl-1,3-thiazol-2-yl)-5-methyl-1H-1,2,3-triazole-4-carboxamide] | > 260 |
| Cc1nnc(NC(=O)c2nnn(Cc3ccc(Cl)c(Cl)c3)c2C)o1 [Example 6, 1-[(3,4-Dichlorophenyl)methyl]-5-methyl-N-(5-methyl-1,3,4-oxadiazol-2-yl)-1H-1,2,3-triazole-4-carboxamide] | 192.2 |
| COCc1nnc(NC(=O)c2nnn(Cc3ccc(Cl)c(Cl)c3)c2C)s1 [Example 7, 1-[(3,4-Dichlorophenyl)methyl]-5-methyl-N-{5-[(methyloxy)methyl]-1,3,4-thiadiazo1-2-yl}-1H-1,2,3-triazole-4-carboxamide] | 178.3 |
| COC(=O)Cc1csc(NC(=O)c2nnn(Cc3ccc(Cl)c(Cl)c3)c2C)n1 [Example 8, Methyl {2-[({1-[(3,4-dichlorophenyl)methyl]-5-methyl-1H-1,2,3-triazol-4-yl}carbonyl)amino]-1,3-thiazol-4-yl}acetate] | 158 |
| CCOC(=O)c1sc(NC(=O)c2nnn(Cc3ccc(Cl)c(Cl)c3)c2C)nc1C(F)(F)F [Example 9, Ethyl 2-[({1-[(3,4-dichlorophenyl)methyl]-5-methyl-1H-1,2,3-triazol-4-yl}carbonyl)amino]-4-(trifluoromethyl)-1,3-thiazole-5-carboxylate] | 155 |
| Cc1nc(NC(=O)c2nnn(Cc3ccc(Cl)c(Cl)c3)c2C)sc1C [Example 10, 1-[(3,4-Dichlorophenyl)methyl]-N-(4,5-dimethyl-1,3-thiazol-2-yl)-5-methyl-1H-1,2,3-triazole-4-carboxamide] | 210.4 |
| CCOC(=O)c1ccc2nc(NC(=O)c3nnn(Cc4ccc(Cl)c(Cl)c4)c3C)sc2c1 [Example 11, Ethyl 2-[({1-[(3,4-dichlorophenyl)methyl]-5-methyl-1H-1,2,3-triazol-4-yl}carbonyl)amino]-1,3-benzothiazole-6-carboxylate] | 199 |
| CCOC(=O)Cc1nc(NC(=O)c2nnn(Cc3ccc(Cl)c(Cl)c3)c2C)sc1C [Example 12, Ethyl {2-[({1-[(3,4-dichlorophenyl)methyl]-5-methyl-1H-1,2,3-triazol-4-yl}carbonyl)amino]-5-methyl-1,3-thiazol-4-yl}acetate] | 125 |
| COC(=O)c1ccc(NC(=O)c2nnn(Cc3ccc(Cl)c(Cl)c3)c2C)nc1 [Example 14, Methyl 6-[({1-[(3,4-dichlorophenyl)methyl]-5-methyl-1H-1,2,3-triazol-4-yl}carbonyl)amino]-3-pyridinecarboxylate] | 179 |
| COC(=O)c1ccnc(NC(=O)c2nnn(Cc3ccc(Cl)c(Cl)c3)c2C)c1 [Example 15, Methyl 2-[({1-[(3,4-dichlorophenyl)methyl]-5-methyl-1H-1,2,3-triazol-4-yl}carbonyl)amino]-4-pyridinecarboxylate] | 172 |
| Cc1nc(NC(=O)c2nnn(Cc3ccc(Cl)c(Cl)c3)c2C)sc1C(=O)O [Example 16, 2-[({1-[(3,4-Dichlorophenyl)methyl]-5-methyl-1H-1,2,3-triazol-4-yl}carbonyl)amino]-4-methyl-1,3-thiazole-5-carboxylic acid] | 262.6 |
| Cc1c(C(=O)Nc2ncc(C(=O)O)o2)nnn1Cc1ccc(Cl)c(Cl)c1 [Example 17, 2-[({1-[(3,4-Dichlorophenyl)methyl]-5-methyl-1H-1,2,3-triazol-4-yl}carbonyl)amino]-1,3-oxazole-5-carboxylic acid] | 201.8 |

| Compound | melting point [°C] |
| --- | --- |
| CNC(=O)c1sc(NC(=O)c2nnn(Cc3ccc(Cl)c(Cl)c3)c2C)nc1C [Example 18, 1-[(3,4-Dichlorophenyl)methyl]-5-methyl-N-{4-methyl-5-[(methylamino)carbonyl]-1,3-thiazol-2-yl}-1H-1,2,3-triazole-4-carboxamide] | 218.5 |
| Cc1nc(NC(=O)c2nnn(Cc3ccc(Cl)c(Cl)c3)c2C)sc1C(=O)NCCC(C)C [Example 19, 1-[(3,4-Dichlorophenyl)methyl]-5-methyl-N-(4-methyl-5-{[(3-methylbutyl)amino]carbonyl}-1,3-thiazol-2-yl)-1H-1,2,3-triazole-4-carboxamide] | 174.3 |
| Cc1nc(NC(=O)c2nnn(Cc3ccc(Cl)c(Cl)c3)c2C)sc1C(=O)NC(C)C [Example 20, 1-[(3,4-Dichlorophenyl)methyl]-5-methyl-N-(4-methyl-5-{[(1-methylethyl)amino]carbonyl}-1,3-thiazol-2-yl)-1H-1,2,3-triazole-4-carboxamide] | 204.4 |
| CCNC(=O)c1sc(NC(=O)c2nnn(Cc3ccc(Cl)c(Cl)c3)c2C)nc1C [Example 21, 1-[(3,4-Dichlorophenyl)methyl]-N-{5-[(ethylamino)carbonyl]-4-methyl-1,3-thiazol-2-yl}-5-methyl-1H-1,2,3-triazole-4-carboxamide] | 194.1 |
| Cc1c(C(=O)Nc2ncc(C(=O)NCCC(C)C)s2)nnn1Cc1ccc(Cl)c(Cl)c1 [Example 23] | 259.3 |
| Cc1nc(NC(=O)c2nnn(Cc3ccc(Cl)c(Cl)c3)c2C)sc1C(=O)N1CCOCC1 [Example 24, 1-[(3,4-Dichlorophenyl)methyl]-5-methyl-N-[4-methyl-5-(4-morpholinyl-carbonyl)-1,3-thiazol-2-yl]-1H-1,2,3-triazole-4-carboxamide] | 202.9 |
| Cc1nc(NC(=O)c2nnn(Cc3ccc(Cl)c(Cl)c3)c2C)sc1C(=O)N1CCN(C)CC1 [Example 25, 1-[(3,4-Dichlorophenyl)methyl]-5-methyl-N-{4-methyl-5-[(4-methyl-1-piperazinyl)carbonyl]-1,3-thiazo1-2-yl}-1H-1,2,3-triazole-4-carboxamide] | 216.9 |
| COCCNC(=O)c1sc(NC(=O)c2nnn(Cc3ccc(Cl)c(Cl)c3)c2C)nc1C [Example 26, 1-[(3,4-Dichlorophenyl)methyl]-5-methyl-N-[4-methyl-5-({[2-(methyloxy)ethyl]amino}carbonyl)-1,3-thiazol-2-yl]-1H-1,2,3-triazole-4-carboxamide] | 129 |
| Cc1nc(NC(=O)c2nnn(Cc3ccc(Cl)c(Cl)c3)c2C)sc1C(=O)NCCO [Example 27, 1-[(3,4-Dichlorophenyl)methyl]-N-(5-{[(2-hydroxyethyl)-amino]carbonyl}-4-methyl-1,3-thiazol-2-yl)-5-methyl-1H-1,2,3-triazole-4-carboxamide] | 166 |
| CNC(=O)c1cnc(NC(=O)c2nnn(Cc3ccc(Cl)c(Cl)c3)c2C)s1 [Example 29, 1-[(3,4-Dichlorophenyl)methyl]-5-methyl-N-{5-[(methylamino)carbonyl]-1,3-thiazol-2-yl}-1H-1,2,3-triazole-4-carboxamide] | 335.6 |
| Cc1c(C(=O)Nc2ncc(C(=O)N(C)C)s2)nnn1Cc1ccc(Cl)c(Cl)c1 [Example 30, 1-[(3,4-Dichlorophenyl)methyl]-N-{5-[(dimethylamino)carbonyl]-1,3-thiazol-2-yl}-5-methyl-1H-1,2,3-triazole-4-carboxamide] | 304.9 |
| Cc1c(C(=O)Nc2ncc(C(=O)NCCO)s2)nnn1Cc1ccc(Cl)c(Cl)c1 [Example 31, 1-[(3,4-Dichlorophenyl)methyl]-N-(5-{[(2-hydroxyethyl)-amino]carbonyl}-1,3-thiazol-2-yl)-5-methyl-1H-1,2,3-triazole-4-carboxamide] | 260.4 |
| CNC(=O)c1ccnc(NC(=O)c2nnn(Cc3ccc(Cl)c(Cl)c3)c2C)c1 [Example 32, 2-[({1-[(3,4-Dichlorophenyl)methyl]-5-methyl-1H-1,2,3-triazol-4-yl}carbonyl)amino]-N-methyl-4-pyridine-carboxamide] | 234.1 |
| CCNC(=O)c1sc(NC(=O)c2cn(Cc3ccc(Cl)c(Cl)c3)nn2)nc1C [Example 33, 1-[(3,4-Dichlorophenyl)methyl]-N-{5-[(ethylamino)carbonyl]-4-methyl-1,3-thiazo1-2-yl}-1H-1,2,3-triazole-4-carboxamide] | 210.6 |
| CNC(=O)c1sc(NC(=O)c2cn(Cc3ccc(Cl)c(Cl)c3)nn2)nc1C [Example 34, 1-[(3,4-Dichlorophenyl)methyl]-N-{4-methyl-5-[(methylamino)carbonyl]-1,3-thiazol-2-yl}-1H-1,2,3-triazole-4-carboxamide] | 210.4 |
| O=C(Nc1ncc(C(=O)NCCO)s1)c1cn(Cc2ccc(Cl)c(Cl)c2)nn1 [Example 35, 1-[(3,4-Dichlorophenyl)methyl]-N-(5-{[(2-hydroxyethyl)amino]carbonyl}-1,3-thiazol-2-yl)-1H-1,2,3-triazole-4-carboxamide] | 274.8 |
| NC(=O)c1cnc(NC(=O)c2cn(Cc3ccc(Cl)c(Cl)c3)nn2)s1 [Example 36, N-[5-(Aminocarbonyl)-1,3-thiazol-2-yl]-1-[(3,4-dichlorophenyl)methyl]-1H-1,2,3-triazole-4-carboxamide] | 280.9 |
